In article PMC9281569, “Two HCN4 Channels Play Functional Roles in the Zebrafish Heart” (Frontiers in Physiology, 2022):
Where “and” joins values, the source holds several entries; their conditions need not be identical. Equal entries are not always repeated. Structures can show the parent of a compound that is named as a salt. Where two headings read alike, the source gives them in different places.

Tests used:
DrHCN4 = target: T1, DrHCN4 (Danio rerio, UniProt A0A8N7UQR8); assay: Inhibition of HCN4 currents in Xenopus oocytes, two-electrode voltage clamp; assay type: cell-based, zebrafish (Danio rerio); conditions: holding −30 mV, hyperpolarized to −120 mV for 2 s, room temperature
T1 sequence (A0A8N7UQR8 1-1140): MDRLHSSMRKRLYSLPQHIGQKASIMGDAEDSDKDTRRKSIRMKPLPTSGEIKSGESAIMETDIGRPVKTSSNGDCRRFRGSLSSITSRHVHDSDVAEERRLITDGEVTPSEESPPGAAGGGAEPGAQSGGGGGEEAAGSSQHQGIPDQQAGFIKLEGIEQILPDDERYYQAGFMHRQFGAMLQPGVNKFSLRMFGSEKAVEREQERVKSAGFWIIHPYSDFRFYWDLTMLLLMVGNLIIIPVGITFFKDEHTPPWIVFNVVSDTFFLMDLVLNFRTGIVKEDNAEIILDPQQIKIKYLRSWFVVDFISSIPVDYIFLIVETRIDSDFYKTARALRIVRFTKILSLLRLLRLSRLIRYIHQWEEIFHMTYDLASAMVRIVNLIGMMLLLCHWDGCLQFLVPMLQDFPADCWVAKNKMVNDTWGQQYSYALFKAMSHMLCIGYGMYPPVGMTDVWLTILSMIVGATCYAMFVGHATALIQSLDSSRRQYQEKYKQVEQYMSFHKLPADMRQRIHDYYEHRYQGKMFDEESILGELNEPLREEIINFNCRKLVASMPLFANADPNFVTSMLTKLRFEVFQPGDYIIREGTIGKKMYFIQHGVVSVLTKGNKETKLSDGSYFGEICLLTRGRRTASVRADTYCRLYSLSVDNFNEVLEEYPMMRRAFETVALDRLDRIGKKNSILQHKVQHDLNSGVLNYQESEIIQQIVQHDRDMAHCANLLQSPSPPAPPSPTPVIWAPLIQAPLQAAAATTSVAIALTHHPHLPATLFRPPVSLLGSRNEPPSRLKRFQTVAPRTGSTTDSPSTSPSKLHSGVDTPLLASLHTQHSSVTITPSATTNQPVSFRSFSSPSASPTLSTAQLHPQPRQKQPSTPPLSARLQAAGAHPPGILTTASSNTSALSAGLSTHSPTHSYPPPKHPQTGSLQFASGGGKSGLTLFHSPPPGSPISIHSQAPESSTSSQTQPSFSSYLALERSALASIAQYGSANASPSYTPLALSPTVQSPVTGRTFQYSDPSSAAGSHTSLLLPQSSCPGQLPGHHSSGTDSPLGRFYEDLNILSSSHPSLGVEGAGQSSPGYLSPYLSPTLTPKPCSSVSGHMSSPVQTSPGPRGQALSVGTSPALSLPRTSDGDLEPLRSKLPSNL

DrHCN4L = target: T2, DrHCN4L (Danio rerio, UniProt A0A8N7TEJ3); assay: as above; assay type: cell-based, zebrafish (Danio rerio); conditions: holding −30 mV, hyperpolarized to −120 mV for 2 s, room temperature
T2 sequence (A0A8N7TEJ3 1-1188): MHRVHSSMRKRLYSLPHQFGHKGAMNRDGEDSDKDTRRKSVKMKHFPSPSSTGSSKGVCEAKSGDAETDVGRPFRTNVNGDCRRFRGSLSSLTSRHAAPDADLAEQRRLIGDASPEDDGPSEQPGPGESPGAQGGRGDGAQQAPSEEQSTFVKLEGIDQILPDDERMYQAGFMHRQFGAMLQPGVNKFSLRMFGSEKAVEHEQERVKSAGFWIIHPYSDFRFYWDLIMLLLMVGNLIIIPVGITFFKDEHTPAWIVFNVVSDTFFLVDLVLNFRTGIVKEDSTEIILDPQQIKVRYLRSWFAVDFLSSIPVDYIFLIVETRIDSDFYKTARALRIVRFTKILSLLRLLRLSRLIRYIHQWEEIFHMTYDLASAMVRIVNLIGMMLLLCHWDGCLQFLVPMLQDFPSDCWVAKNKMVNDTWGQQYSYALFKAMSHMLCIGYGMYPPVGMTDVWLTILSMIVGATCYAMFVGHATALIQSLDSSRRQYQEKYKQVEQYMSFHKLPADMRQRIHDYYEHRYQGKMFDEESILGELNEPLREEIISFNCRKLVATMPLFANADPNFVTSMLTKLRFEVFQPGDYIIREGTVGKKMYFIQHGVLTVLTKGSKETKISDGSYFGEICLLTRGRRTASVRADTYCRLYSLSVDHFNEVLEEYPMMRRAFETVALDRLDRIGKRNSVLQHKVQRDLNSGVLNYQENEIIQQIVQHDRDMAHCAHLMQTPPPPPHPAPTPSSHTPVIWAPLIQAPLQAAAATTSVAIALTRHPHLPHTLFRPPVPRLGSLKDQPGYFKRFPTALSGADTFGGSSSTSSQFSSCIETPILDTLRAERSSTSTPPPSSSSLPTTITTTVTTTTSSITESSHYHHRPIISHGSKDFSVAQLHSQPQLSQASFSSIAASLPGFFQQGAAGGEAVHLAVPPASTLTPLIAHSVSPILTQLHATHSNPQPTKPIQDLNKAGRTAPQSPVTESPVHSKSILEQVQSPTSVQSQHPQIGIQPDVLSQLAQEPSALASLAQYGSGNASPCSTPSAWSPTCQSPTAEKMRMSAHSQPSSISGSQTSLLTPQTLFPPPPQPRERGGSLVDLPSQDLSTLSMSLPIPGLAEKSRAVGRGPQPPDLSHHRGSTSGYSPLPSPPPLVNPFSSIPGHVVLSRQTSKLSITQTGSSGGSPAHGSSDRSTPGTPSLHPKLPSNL

[1] = test system: developing zebrafish embryos; assay: HCN inhibitors in egg water: heart rate of developing zebrafish embryos; conditions: for Effect on heart rate, concentration dependence: 10 μM, 100 μM, 24 h and 48 h; for Effect on heart rate, concentration dependence / Heart rate recovery after washout: 1 mM; for Heart rate recovery after washout: 6 h after washout; for Pericardial edema in inhibitor-treated zebrafish: zebrafish embryos treated with inhibitor
[2] = DrHCN4 in Xenopus oocytes, read-out: IC50
[3] = DrHCN4L in Xenopus oocytes, read-out: IC50
[4] = 0 h (24 hpf), before application of inhibitor, 1 mM group
[5] = 24 h after application, 1 mM in egg water
[6] = 48 h after application, 1 mM in egg water
[7] = Washout, 6 h in inhibitor-free water after 48 h, 1 mM group
[8] = 0 h (24 hpf), before application of inhibitor, 10 μM group
[9] = 0 h (24 hpf), before application of inhibitor, 100 μM group
[10] = 24 h after application, 10 μM in egg water
[11] = 24 h after application, 100 μM in egg water
[12] = 48 h after application, 10 μM in egg water
[13] = 48 h after application, 100 μM in egg water
[14] = Washout, 6 h in inhibitor-free water after 48 h, 10 μM group
[15] = Washout, 6 h in inhibitor-free water after 48 h, 100 μM group

| Compound | IC50 (DrHCN4; [2]) [µM] | IC50 (DrHCN4L; [3]) [µM] | Heart rate [1, 4] [bpm] | Heart rate [1, 5] [bpm] | Heart rate [1, 6] [bpm] | Heart rate [1, 7] [bpm] | Heart rate [1, 8] [bpm] | Heart rate [1, 9] [bpm] | Effect on heart rate, concentration dependence [1] | Heart rate recovery after washout [1] | Heart rate [1, 10] [bpm] | Heart rate [1, 11] [bpm] | Heart rate [1, 12] [bpm] | Heart rate [1, 13] [bpm] | Heart rate [1, 14] [bpm] | Heart rate [1, 15] [bpm] | Pericardial edema in inhibitor-treated zebrafish [1] | also measured |
| --- | --- | --- | --- | --- | --- | --- | --- | --- | --- | --- | --- | --- | --- | --- | --- | --- | --- | --- |
| [Cl-].[Cs+] [Cesium ion, Cesium chloride] | 44.3 ± 11.2 | 48.3 ± 6.9 | 89 ± 1 | 131 ± 2 | 133 ± 2 | 139 ± 3 |  |  |  |  |  |  |  |  |  |  |  | IC50 (DrHCN4; DrHCN4 in Xenopus oocytes, listed as Cs^+, read-out: IC50): 44 ± 11 µM; IC50 (DrHCN4L; DrHCN4L in Xenopus oocytes, listed as Cs^+, read-out: IC50): 48 ± 7 µM |
| CCN(c1ccccc1)c1cc(=NC)n(C)c(C)n1.Cl [ZD7288] | 699 ± 216 | 596 ± 383 | 84 ± 3 | 113 ± 3 | 94 ± 2 | 115 ± 2 | 81 ± 4 | 80 ± 3 | significantly lowered heart rate, except for a concentration of 10 μM at 24 h | recovered | 150 ± 3 | 129 ± 1 | 142 ± 2 | 97 ± 4 | 160 ± 3 | 140 ± 4 | no pericardial edema was observed |  |
| COc1cc2c(cc1OC)CC(=O)N(CCCN(C)C[C@H]1Cc3cc(OC)c(OC)cc31)CC2 [Ivabradine, ivabradine hydrochloride] |  |  | 85 ± 2 | 98 ± 2 | 72 ± 2 | 115 ± 3 | 81 ± 3 | 81 ± 2 | significantly suppressed heart rate at all concentrations and time points | recovered | 134 ± 4 | 124 ± 5 | 133 ± 2 | 101 ± 2 | 149 ± 3 | 133 ± 3 | no pericardial edema was observed | IC50 (DrHCN4; IC50, DrHCN4 in Xenopus oocytes): 31 µM and 30.9 µM; IC50 (DrHCN4L; IC50, DrHCN4L in Xenopus oocytes): 10 µM and 10.4 µM |
